Experiments:
[1] = Solubility of the compound; format: physicochemical
[2] = test system: NCI-H460; assay: Antiproliferative activity against human NCI-H460 cells after 72 hrs by SRB assay; format: functional, cell-based; conditions: NCI-H460, 72 h
[3] = test system: HEK293; assay: Antiproliferative activity against HEK293 cells after 72 hrs by SRB assay; format: cell-based; conditions: Homo sapiens, HEK293, 72 h
[4] = test system: A-375; assay: Antiproliferative activity against human A375 cells after 72 hrs by SRB assay; format: functional, cell-based; conditions: A-375, 72 h
[5] = Antiproliferative activity against human U87 cells after 72 hrs by SRB assay; format: functional, cell-based, U-87MG ATCC; conditions: U-87 MG
[6] = test system: MCF7; assay: Antiproliferative activity against human MCF7 cells after 72 hrs by SRB assay; format: functional, cell-based; conditions: MCF7, 72 h
[7] = test system: A549; assay: Antiproliferative activity against human A549 cells after 72 hrs by SRB assay; format: functional, cell-based; conditions: A549, 72 h
[8] = test system: A-375; assay: Growth inhibition of human A375 cells at 20 uM after 72 hrs by SRB assay relative to control; format: functional; conditions: A-375, 72 h, read-out: GI
[9] = test system: HeLa; assay: Growth inhibition of human HeLa cells at 20 uM after 72 hrs by SRB assay relative to control; format: functional; conditions: read-out: GI
[10] = test system: A549; assay: Growth inhibition of human A549 cells at 20 uM after 72 hrs by SRB assay relative to control; format: functional; conditions: A549, 72 h, read-out: GI
[11] = Growth inhibition of human U87 cells at 20 uM after 72 hrs by SRB assay relative to control; format: functional, U-87MG ATCC; conditions: U-87 MG, read-out: GI
[12] = test system: MCF7; assay: Growth inhibition of human MCF7 cells at 20 uM after 72 hrs by SRB assay relative to control; format: functional; conditions: MCF7, 72 h, read-out: GI

SMILES | solubility [1] | IC50 [2] | IC50 [4] | IC50 [6] | IC50 [7] | IC50 [3] | IC50 [5] | inhibition of growth at 20 µM [8] | inhibition of growth at 20 µM [9] | inhibition of growth at 20 µM [10] | inhibition of growth at 20 µM [11] | inhibition of growth at 20 µM [12]
Cc1cnc2c(N3CCOCC3)cc(-c3ccc(NC(=O)Nc4ccncc4)cc3)nn12 | Insoluble | > 40 µM | > 40 µM | > 40 µM | > 40 µM | > 40 µM | > 40 µM | – | – | – | – | –
COc1ccc(-c2cc(N3CCOC[C@@H]3C)c3ncc(C4CCN(Cc5cccnc5)CC4)n3n2)cc1CO | – | – | – | – | – | – | – | 15.2% | 50.3% | 65% | 11.7% | 37.9%
C[C@H]1COCCN1c1cc(-c2ccc3[nH]ccc3c2)nn2c(C3CCN(S(C)(=O)=O)CC3)cnc12 | – | – | – | – | – | – | – | 29.4% | 47.4% | 34% | 45.4% | 55.3%
C[C@H]1COCCN1c1cc(-c2cccc(CO)c2)nn2c(C3CCN(S(C)(=O)=O)CC3)cnc12 | – | – | – | – | – | – | – | 11.6% | -2.3% | 48.1% | 4.5% | 36.1%
CCc1cnc2c(N3CCOCC3)cc(-c3ccc(NC(=O)Nc4cccnc4)cc3)nn12 | Insoluble | > 40 µM | > 40 µM | > 40 µM | 1.9 µM | > 40 µM | > 40 µM | – | – | – | – | –
Cc1cnc2c(N3CCOCC3)cc(-c3ccc(NC(=O)Nc4cccnc4)cc3)nn12 | Insoluble | 6.8 µM | 6.4 µM | 16.3 µM | 5 µM | 11.5 µM | 12.9 µM | – | – | – | – | –

Second part, led by results:

solubility [1] | IC50 [2] | IC50 [4] | IC50 [6] | IC50 [7] | SMILES | IC50 [3] | IC50 [5] | inhibition of growth at 20 µM [8] | inhibition of growth at 20 µM [9] | inhibition of growth at 20 µM [10] | inhibition of growth at 20 µM [11] | inhibition of growth at 20 µM [12]
Insoluble | 3.7 µM | 4.2 µM | 6.6 µM | 5.3 µM | CCc1cnc2c(N3CCOC[C@@H]3C)cc(-c3ccc(NC(=O)Nc4cccnc4)cc3)nn12 | 7.3 µM | 8.4 µM | – | – | – | – | –
Insoluble | 7.3 µM | 3.3 µM | 7.8 µM | 1.2 µM | Cc1cnc2c(N3CCOC[C@@H]3C)cc(-c3ccc(NC(=O)Nc4cccnc4)cc3)nn12 | 8.2 µM | 10.8 µM | – | – | – | – | –
– | – | 8 µM | 13.5 µM | 7.1 µM | c1cncc(CN2CCC(c3cnc4c(N5CCOCC5)cc(-c5ccc6[nH]ccc6c5)nn34)CC2)c1 | – | 5.1 µM | 95.8% | 68.6% | 96.5% | 84.2% | 94.6%
– | – | 3.4 µM | 6.3 µM | 7.7 µM | C[C@H]1COCCN1c1cc(-c2ccc3[nH]ccc3c2)nn2c(C3CCN(Cc4cccnc4)CC3)cnc12 | – | 7.9 µM | 96.7% | 73.6% | 84% | 84.4% | 96.5%
– | – | 4.1 µM | 9.9 µM | 11.6 µM | C[C@H]1COCCN1c1cc(-c2ccc3[nH]ccc3c2)nn2c(C3CCN(C(=O)c4cccnc4)CC3)cnc12 | – | 10 µM | 96.7% | 34.2% | 57% | 58.3% | 75.6%
Insoluble | 2.8 µM | 4.1 µM | 4.7 µM | 5.9 µM | CCc1cnc2c(N3CCOC[C@@H]3C)cc(-c3ccc(NC(=O)Nc4ccncc4)cc3)nn12 | 7.5 µM | 5.1 µM | – | – | – | – | –
Insoluble | > 40 µM | 2.3 µM | > 40 µM | 2.1 µM | Cc1cnc2c(N3CCOC[C@@H]3C)cc(-c3ccc(NC(=O)Nc4ccncc4)cc3)nn12 | > 40 µM | > 40 µM | – | – | – | – | –
